# Values joined by “and” are separate entries in the source; they are usually repeats but may differ in a detail not shown here. Identical values can stand only once. Counter-ions that a name gives are not always drawn. Like-named read-outs stand apart in the source and are kept apart here.
# What was measured:
# [1] = test system: P. aeruginosa PAO1-Pore cells; assay: LC–MS quantification of intracellular accumulation, PAO1-Pore; settings: 10-80 µM; for Concentration slopes of accumulation, PAO1-Pore_1 min: 1 min incubation; for Concentration slopes of accumulation, PAO1-Pore_40 min: 40 min incubation;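 as to all read-outs here: slope of accumulation versus external concentration fitted as a line through zero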
# Experimental: (§1) PAO1-Pore and PΔ3-Pore were grown at 37 °C overnight with shaking at 225 rpm in 50 mM MOPS-M9 (pH 7.2) Minimal Medium supplemented with 1% glycerol[42],[43].
# (§2) The next day, cells were sub-cultured (1.5:100) in fresh MOPS-M9 medium and grown for 16 h. The cultures were then split into two flasks and one of them was induced with 0.1 mM IPTG. Cells incubated for additional 4 h until OD600 reached ~ 1.0 and harvested by centrifugation at 3,275xg for 20 min in RT, washed and concentrated 10X in the spent medium. Assays were performed in 96-well plates in a final volume of […]. Cells were incubated with 10, 20, 40, 80 µM of compounds and after 1- and 40-min incubation at RT, 100 µL cell aliquots were collected by vacuum filtration onto 1.0 µm Glass Fiber Type B filters. For no-cell controls, compounds were diluted to 10, 20, 40, 80 µM final concentration in the same medium, incubated for 1 min and 40 min and filtered onto the same plates. The cell loaded and cell-free filters were dried, removed from plates and placed into 100% methanol at -80 °C for at least 10 min. Filter-bound material was extracted by water bath sonication for 1 min. Cell and filter debris were separated by ultracentrifugation at 45,000 rpm (TLA55 rotor, Beckman) for 8 min at 16 °C and the pellet re-extracted with 80% methanol in water by sonication for 15 min followed by ultracentrifugation at the same conditions. Supernatants from two extractions were combined. For the compound quantification, 5 µL of solution was analyzed in triplicate.
# (§3) Calibration curves for MS analyses of compounds were generated in the same experiment by mixing compound at increasing concentrations with the sonicated PAO1 cell extracts. […] Azithromycin was used as a positive control in all experiments.
# (§4) Samples were processed in positive ion mode. An Eclipse plus C18 Rapid Resolution HD column (1.8 μm, 2.1 × 50 mm, Agilent, USA) was used for separation. The flow rate was 0.6 mL/min using the following gradient: 0 to 1 min (0- 20% ACN), 1 to 4 min (20- 80% ACN), 4 to 5.1 min (80–100% ACN), 5.1 to 6.30 (100% ACN). Solvents contained 0.1% formic acid to promote positive ion formation in the electrospray. […] Data were analyzed using Agilent Masshunter workstation quantitative analysis v. B.10 software.
# [2] = test system: P. aeruginosa PΔ3 cells; settings: 10-80 µM; for Concentration slopes of accumulation, PΔ3_1 min: 1 min incubation; for Concentration slopes of accumulation, PΔ3_40 min: 40 min incubation;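 as to all read-outs here: slope of accumulation versus external concentration fitted as a line through zero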
# Experimental: as §1, §2, §3, §4
# [3] = test system: P. aeruginosa PΔ3-Pore cells; assay: LC–MS quantification of intracellular accumulation, PΔ3-Pore; settings: 10-80 µM; for Concentration slopes of accumulation, PΔ3-Pore_1 min: 1 min incubation; for Concentration slopes of accumulation, PΔ3-Pore_40min: 40 min incubation;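 as to all read-outs here: slope of accumulation versus external concentration fitted as a line through zero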
# Experimental: as §1, §2, §3, §4
# [4] = test system: P. aeruginosa; settings: for Cluster of the identified "good" permeators: sheet "Good" permeators, all listed compounds are good permeators
# Experimental: The measured levels of compound accumulation were analyzed using machine learning to determine which features of the compounds are most important for enabling their cellular accumulation and to determine their optimal values. […] To accentuate the permeability aspect, the accumulation slopes in efflux-deficient and hyperporinated strains were normalized to those in the parental PAO1 strain.
# To help visualize the data, we performed a principal component (PC) decomposition of the data.
# [5] = test system: P. aeruginosa PAO1 cells; assay: LC–MS quantification of intracellular accumulation, PAO1; settings: 10-80 µM; for Concentration slopes of accumulation, PAO1_1 min: 1 min incubation; for Concentration slopes of accumulation, PAO1_40 min: 40 min incubation;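 as to all read-outs here: slope of accumulation versus external concentration fitted as a line through zero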
# Experimental: as §1, §2, §3, §4
# [6] = test system: P. aeruginosa PAO1-Pore; assay: MIC by two-fold dilution, hyperporinated PAO1-Pore; assay type: cell-based, Pseudomonas aeruginosa; settings: for MICs: PAO1-Pore; for MIC: Pseudomonas aeruginosa, PAO1, read-out: MICs
# Experimental: (§5) In all experiments, P. aeruginosa PAO1-Pore (PAO1 attTn7::PLAC-fhuA) and PΔ3-Pore (ΔmexAB ΔmexCD ΔmexXY attTn7::PLAC-fhuA) strains were used[29]. Strains were routinely grown in Luria–Bertani (LB) or MOPS-M9 medium at 37 °C with aeration. MICs shown in Tables 1 and 2 were determined by a two-fold dilution method in LB broth and MOPS-M9 medium, respectively, following the previously described protocol.
# [7] = test system: P. aeruginosa PΔ3-Pore; assay: MIC by two-fold dilution, barrierless PΔ3-Pore; assay type: cell-based, Pseudomonas aeruginosa; settings: for MICs: P∆3-Pore; for MIC: Pseudomonas aeruginosa, read-out: MICs, P∆3-Pore, MOPS-M9 medium
# Experimental: as §5
# [8] = test system: P. aeruginosa PΔ3; assay: microbe, parasite or virus in culture; assay type: cell-based, Pseudomonas aeruginosa; settings: for MICs: P∆3, MOPS-M9 medium; for MIC: Pseudomonas aeruginosa, read-out: MICs
# Experimental: as §5
# [9] = test system: P. aeruginosa PAO1; assay: MIC by two-fold dilution, wild type PAO1; assay type: cell-based, Pseudomonas aeruginosa; settings: PAO1, MOPS-M9 medium, read-out: MICs
# Experimental: as §5
compound,measurement,setting,value
O=C1N[C@@H](Cc2c[nH]c3ccccc23)C(=O)N2CCC[C@@H]12 [OU-0032512],"Concentration slopes of accumulation, PAO1-Pore_1 min",[1],3.51
same,"Concentration slopes of accumulation, PAO1-Pore_40 min",[1],2.49
same,"Concentration slopes of accumulation, PΔ3_1 min",[2],2.98
same,"Concentration slopes of accumulation, PΔ3_40 min",[2],3.06
same,"Concentration slopes of accumulation, PΔ3-Pore_1 min",[3],2.90
same,"Concentration slopes of accumulation, PΔ3-Pore_40min",[3],2.97
same,"Cluster of the identified ""good"" permeators",[4],1
"N[C@@H](CC(=O)N1CCn2c(nnc2C(F)(F)F)C1)Cc1cc(F)c(F)cc1F [OU-0000833, Sitagliptin Monophosphate Monohydrate]","Concentration slopes of accumulation, PAO1_1 min",[5],7.55
same,"Concentration slopes of accumulation, PAO1_40 min",[5],5.67
same,"Concentration slopes of accumulation, PAO1-Pore_1 min",[1],4.16
same,"Concentration slopes of accumulation, PAO1-Pore_40 min",[1],4.84
same,"Concentration slopes of accumulation, PΔ3_1 min",[2],4.36
same,"Concentration slopes of accumulation, PΔ3_40 min",[2],4.18
same,"Concentration slopes of accumulation, PΔ3-Pore_1 min",[3],4.24
same,"Concentration slopes of accumulation, PΔ3-Pore_40min",[3],4.28
same,permeator classification,[4],good permeators
same,"Cluster of the identified ""good"" permeators",[4],1
CC1CN=C(c2ccc(NC(=O)Nc3ccc(C4=NCCN4)cc3)cc2)N1.Cl (centres unmarked) [OU-0001395],"Concentration slopes of accumulation, PAO1_1 min",[5],3.79
same,"Concentration slopes of accumulation, PAO1_40 min",[5],6.44
same,"Concentration slopes of accumulation, PAO1-Pore_1 min",[1],2.72
same,"Concentration slopes of accumulation, PAO1-Pore_40 min",[1],7.34
same,"Concentration slopes of accumulation, PΔ3_1 min",[2],8.86
same,"Concentration slopes of accumulation, PΔ3_40 min",[2],5.05
same,"Concentration slopes of accumulation, PΔ3-Pore_1 min",[3],1.38
same,"Concentration slopes of accumulation, PΔ3-Pore_40min",[3],4.42
same,"Cluster of the identified ""good"" permeators",[4],1
CC(C)(C)OC(=O)N1[C@H](CCC2CCCCC2)CNC(=O)[C@@H]1Cc1cc(F)cc(F)c1 [OU-0032510],"Concentration slopes of accumulation, PAO1_1 min",[5],36.86
same,"Concentration slopes of accumulation, PAO1_40 min",[5],31.85
same,"Concentration slopes of accumulation, PAO1-Pore_1 min",[1],37.26
same,"Concentration slopes of accumulation, PAO1-Pore_40 min",[1],28.02
same,"Concentration slopes of accumulation, PΔ3_1 min",[2],30.64
same,"Concentration slopes of accumulation, PΔ3_40 min",[2],29.44
same,"Concentration slopes of accumulation, PΔ3-Pore_1 min",[3],31.28
same,"Concentration slopes of accumulation, PΔ3-Pore_40min",[3],28.27
same,"Cluster of the identified ""good"" permeators",[4],3
C=CCN1CC(CCCC)N(C(=O)OC(C)(C)C)C(Cc2ccccc2)C1=O (centres unmarked) [OU-0032511],"Concentration slopes of accumulation, PAO1-Pore_1 min",[1],4.02
same,"Concentration slopes of accumulation, PAO1-Pore_40 min",[1],4.09
same,"Concentration slopes of accumulation, PΔ3_1 min",[2],4.08
same,"Concentration slopes of accumulation, PΔ3_40 min",[2],3.52
same,"Concentration slopes of accumulation, PΔ3-Pore_1 min",[3],4.38
same,"Concentration slopes of accumulation, PΔ3-Pore_40min",[3],4.27
same,"Cluster of the identified ""good"" permeators",[4],1
"CN1C[C@H](C(=O)N[C@]2(C)O[C@@]3(O)[C@@H]4CCCN4C(=O)[C@H](Cc4ccccc4)N3C2=O)C=C2c3cccc4[nH]cc(c34)C[C@H]21 [OU-0000834, Ergotamine Tartrate]","Concentration slopes of accumulation, PAO1_1 min",[5],15.91
same,"Concentration slopes of accumulation, PAO1_40 min",[5],12.24
same,"Concentration slopes of accumulation, PAO1-Pore_1 min",[1],17.94
same,"Concentration slopes of accumulation, PAO1-Pore_40 min",[1],20.50
same,"Concentration slopes of accumulation, PΔ3_1 min",[2],8.34
same,"Concentration slopes of accumulation, PΔ3_40 min",[2],13.59
same,"Concentration slopes of accumulation, PΔ3-Pore_1 min",[3],20.02
same,"Concentration slopes of accumulation, PΔ3-Pore_40min",[3],15.58
same,permeator classification,[4],good permeators
same,"Cluster of the identified ""good"" permeators",[4],3
"CS(=O)(=O)O.C[C@H]1COc2c(C3(N)CC3)c(F)cc3c(=O)c(C(=O)O)cn1c23 [OU-0000627, PAZUFLOXACIN MESYLATE]",MICs,"[6]; LB broth, Table S2",0.25
same,MICs,[6]; MOPS-M9 medium,0.03 mg/L
same,MICs,"[6]; MOPS-M9 medium, listed as Pazufloxacin mesylate",0.0625 µM
same,MICs,"[7]; LB broth, Table S2",0.0156
same,MICs,[7]; MOPS-M9 medium,0.031 μM and 0.01 mg/L
same,"Concentration slopes of accumulation, PAO1-Pore_1 min",[1],5.79
same,"Concentration slopes of accumulation, PAO1-Pore_40 min",[1],7.45
same,MICs,[8],0.05 mg/L
same,MICs,[8]; listed as Pazufloxacin mesylate,0.125 µM
same,MIC,[9],0.5 µM
same,"Concentration slopes of accumulation, PΔ3_1 min",[2],3.81
same,"Concentration slopes of accumulation, PΔ3_40 min",[2],5.01
same,"Concentration slopes of accumulation, PΔ3-Pore_1 min",[3],5.45
same,"Concentration slopes of accumulation, PΔ3-Pore_40min",[3],5.72
same,"Cluster of the identified ""good"" permeators",[4],1
"CN1CCN(c2cc3c(cc2F)c(=O)c(C(=O)O)cn3-c2ccc(F)cc2)CC1 [OU-0000624, DIFLOXACIN]",MICs,"[6]; LB broth, Table S2",0.39
same,MIC,[6],0.0625 µM and 0.03 µg/mL
same,"Concentration slopes of accumulation, PAO1_1 min",[5],3.78
same,"Concentration slopes of accumulation, PAO1_40 min",[5],6.48
same,MIC,[7],0.0313 µM and 0.01 µg/mL
same,MICs,"[7]; LB broth, Table S2",0.097
same,"Concentration slopes of accumulation, PAO1-Pore_1 min",[1],8.04
same,"Concentration slopes of accumulation, PAO1-Pore_40 min",[1],11.39
same,MIC,[8],0.313 µM and 0.14 µg/mL
same,MIC,[9]; Pseudomonas aeruginosa,2.5 µM and 1.1 µg/mL
same,"Concentration slopes of accumulation, PΔ3_1 min",[2],4.42
same,"Concentration slopes of accumulation, PΔ3_40 min",[2],5.02
same,"Concentration slopes of accumulation, PΔ3-Pore_1 min",[3],6.73
same,"Concentration slopes of accumulation, PΔ3-Pore_40min",[3],8.21
"COc1c(N2C[C@@H]3CCCN[C@@H]3C2)c(F)cc2c(=O)c(C(=O)O)cn(C3CC3)c12 [OU-0000626, MOXIFLOXACIN HYDROCHLORIDE]",MICs,"[6]; LB broth, Table S2",0.39
same,MIC,[6],0.03 µg/mL
same,"Concentration slopes of accumulation, PAO1_1 min",[5],1.19
same,"Concentration slopes of accumulation, PAO1_40 min",[5],2.06
same,MIC,[7],0.0313 µM and 0.01 µg/mL
same,MICs,"[7]; LB broth, Table S2",0.024
same,"Concentration slopes of accumulation, PAO1-Pore_1 min",[1],3.02
same,"Concentration slopes of accumulation, PAO1-Pore_40 min",[1],7.25
same,MIC,[8],0.27 µg/mL
same,MIC,[9]; Pseudomonas aeruginosa,2.5 µM and 1.1 µg/mL
same,"Concentration slopes of accumulation, PΔ3_1 min",[2],1.39
same,"Concentration slopes of accumulation, PΔ3_40 min",[2],2.61
same,"Concentration slopes of accumulation, PΔ3-Pore_1 min",[3],2.26
same,"Concentration slopes of accumulation, PΔ3-Pore_40min",[3],4.78
